# Experimental data reported in patent publication US10472599B2, “Microfluidic cell culture of patient-derived tumor cell spheroids” (Dana-Farber Cancer Institute, Inc., priority 2015, dated 2019).
# Legend:
# Format in all cases: cell-based, human
# [1] = test system: spheroids derived from multiple different melanoma resection specimens; experiment: Luminex cytokine profiling of conditioned media from melanoma spheroid culture
# Procedure: On Day 3, media was aspirated from the device and ˜200 μL media (1:1 mixture of 10% FBS-DMEM and EGM2 supplemented with growth factors per protocol) with or without treatment (e.g., anti-PD-1 monoclonal Ab) were added to each device. The devices were subsequently placed in humidified, sterile containers, and returned to 37° C. incubation.
# On Day 6 (or 48-72 hours post-treatment), conditioned media was collected for cytokine analysis. Light microscopy was performed and images obtained to characterize and document spheroid dispersal and/or putative immune response, which is commonly characterized by non-pigmented cells surrounding the brown-pigmented melanoma spheroids. Media was collected from each device by aspiration using a 200 μL pipet, transferred to sterile 1.5 mL Eppendorf tubes, and frozen at −80° C. prior to submission to CMOP for multiplex cytokine/chemokine analysis. Also on Day 6, the cells present in the 3D culture device following treatment were characterized by multiple methods.
# As the spheroids and co-cultured endothelial cells are bathed in media, the conditioned media was extracted from the device and luminex cytokine profiling was performed.
# [2] = test system: spheroids derived from multiple different melanoma resection specimens; experiment: Light microscopy of immune response in patient-derived melanoma spheroids in 3D microfluidic culture; settings: pembrolizumab 250 μg/mL
# Procedure: On Day 1, tumor was collected in an operating room and placed in a sterile 15 mL conical tube bathed with culture media (10% FBS with DMEM or RPMI) and stored on ice. The media was aspirated in a sterile hood and the tumor specimen gently placed in a normal 10 cm culture dish on ice. Using a scalpel, the tumor was minced into smaller pieces. A sample can optionally be exposed to strong collagenase treatment to generate single cells that can be submitted directly for flow cytometry. To the 10 cm dish containing the minced tumor was added 10 mL of collagenase solution (10 mL media, 150 μL HEPES (15 mM final concentration), 100 μL collagenase (100 U/μL stock, 1 unit/μL final concentration)). The minced tumor and collagenase mixture was subsequently transferred to a 50 mL conical tube, and then transferred to a fresh low-attachment 10 cm dish. The low-attachment dish comprising the sample was incubated at 37° C. for 30-60 minutes while checking every 15-30 minutes, as the duration of time required varies from specimen to specimen. The intended outcome of this step is to generate multicellular spheroids via a limited collagenase digestion, so the sample should not be comprised entirely of single cells. After the […] incubation period, 10 mL of fresh media was added to the dish containing the tumor sample and the contents (˜20 mL) transferred to a 50 mL conical tube. […]
# melanoma tumor spheroids = experiment: Flow cytometry immune profiling of cells extracted from the device post-treatment
# Procedure: For flow cytometry, RNA sequencing analysis, or T-cell receptor (TCR) sequencing the cells were removed using collagenase (150 μL per device) after media had been removed. […] The cells in collagenase were aspirated into a 15 mL conical tube containing 4.0 mL of sterile 1× PBS and spun down for 5 minutes at 1100 rpm. The PBS wash was gently aspirated and the pellet resuspended in 1.5 mL 10% FBS-DMEM for flow cytometry. In some instances, genomic DNA is prepared from flow-sorted T lymphocytes for TCR sequencing using the ImmunoSeq platform from Adaptive Biotechnologies to evaluate T-cell receptor clonality. Clonality can be assessed in spheroids relative to bulk tumor, and in response to immune checkpoint blockade to evaluate for increased TCR clonality (indicating expansion of tumor-reactive T cell clones). For RNA sequencing, the resuspension can be performed using 1.5 mL 10% FBS-DMEM, PBS, or a compatible lysis buffer.
# Additionally, although it was demonstrable by flow cytometry of melanoma tumor spheroids at baseline that they consisted of up to 20% immune cells, including T cells, dendritic cells, monocytes (not shown), the value of extracting cells from the device and repeating flow cytometry post-treatment was realized. By repeating collagenase digestion within the device and washing cells in PBS, conditions have been developed that enable repeat immune profiling. […]
substance,measurement,setting,value
pembrolizumab,"certain cytokines (e.g., IP10) in conditioned media",[1]; combination with anti-CD28 (FIG. 5),induced
same,cytokines in conditioned media,[1]; following αPD1 exposure (FIG. 5),pronounced up-regulation of multiple cytokines
same,immune response,[2]; absence of anti-CD28 co-stimulation (FIG. 4A),observed immune response
same,immune response,[2]; presence of anti-CD28 co-stimulation (FIG. 4B),observed immune response
same,markers of early CD8 T cell activation such as CD69,melanoma tumor spheroids; post-treatment flow cytometry (FIG. 6A),observed increase
same,specific immune checkpoint receptors such as TIM3,melanoma tumor spheroids; post-treatment flow cytometry (FIG. 6B),increase
